Experiments:
[1] = tested on: murine model for NEC (mNEC); experiment: Murine model for NEC (mNEC), oral CpG-ODN during induction (Example 1); type: in vivo, mouse; conditions: for gross morphology: mNEC mice treated orally vs untreated mNEC mice, FIG. 5; for expression of TNFα in the intestines (quantitative RT-PCR) / disruption of the small intestine mucosa (H&E histology): mNEC mice; for expression of TNFα in the intestines (quantitative RT-PCR): oral 1 mg/kg twice per day in formula, day 4 after mNEC induction, FIG. 1; for disruption of the small intestine mucosa (H&E histology): FIG. 2A-F; for body weight: treated vs untreated mNEC mice
Protocol: (§1) A murine model for NEC (“mNEC”) was produced in newborn mice by 4 days of hypoxia and formula gavage (52), which leads to the induction of iNOS, reduced enterocyte proliferation, and disruption of the ileal mucosa (“mNEC” mice) as compared to control mice that were allowed to breast feed (“BF” mice”). Specifically, mNEC was induced in 10-d-old mice (12) using formula gavage [Similac Advance infant formula (Abbott Nutrition):Esbilac canine milk replacer, 2:1] 50 μL/g body weight, five times per day for 4 d, and hypoxia (5% O2, 95% N2) administered for 10 min twice daily for 4 d using a hypoxia chamber (Billups-Rothenberg Inc.). CpG-1 was […]-3′ (SEQ ID NO:6), containing phosphorothioate linkages, known in the art as CpG ODN 1826 (Coley Pharmaceutical Group, Ottawa, Ontario, Canada (Pfizer)). CpG-2 was 5′ […] 3′ (SEQ ID NO:9). CpG-1 or CpG-2 was administered at a dose of 1 mg/kg at a frequency of twice per day in the infant formula described above. Oral administration to breast-fed and NEC animals was achieved by gavage with a silastic foam tipped angiocatheter.
Quantitative RT-PCR was used to assess the effects of orally administered CpG-1 or CpG-2 on expression of the inflammatory cytokine tumor necrosis factor alpha (TNFα) in mNEC versus BF mice. Measurements were made on day 4 after mNEC induction. […] This effect was reflected by histologic evaluation, as depicted in FIG. 2A-F, where the disruption of the small intestine mucosa observed in untreated mNEC mice (FIG. 2B) is ameliorated in mNEC mice orally treated with CpG-1 or CpG-2 (FIGS. 2C and 2D, respectively) to resemble the mucosa of BF control (FIG. 2A).

[2] = tested on: murine model for NEC (mNEC); experiment: Pre-treatment with CpG-1 48 hours prior to attempted induction of mNEC; type: in vivo, mouse; conditions: administered 48 hours prior to attempted induction of mNEC
Protocol: FIG. 6A-C. Effects of pre-treatment of mice prior to induction of NEC. (A) Mucosal iNOS expression (as measured by RT-PCR) in BF controls, untreated mNEC animals, mice pre-treated with CpG-1 for 48 hours prior to attempted induction of NEC (“mNEC Cpg1”) and BF mice treated with CpG-1 for 48 hours. (B) Mucosal TNFα expression (as measured by RT-PCR) in BF controls, untreated mNEC animals, mice pre-treated with CpG-1 for 48 hours prior to attempted induction of NEC (“mNEC Cpg1”) and BF mice treated with CpG-1 for 48 hours. (C) Weight at the time of euthanasia of BF controls, untreated mNEC animals, mice pre-treated with CpG-1 for 48 hours prior to attempted induction of NEC (“mNEC Cpg1”) and BF mice treated with CpG-1 for 48 hours.
as §1

[3] = tested on: experimental NEC in neonatal mice; experiment: Experimental NEC in neonatal mice (formula feeding and hypoxia), oral CpG (Example 2); type: in vivo, mouse
Protocol: (§2) The effect of CpG-ODN 5′-[…]-3′ (SEQ ID NO:6; ODN 1826) on inhibiting NEC in a murine NEC model in vivo, and in ex vivo human samples from infants undergoing intestinal resection for active NEC or at the time of stoma closure was examined. To determine the level of NEC inhibition, the extent of LPS signaling was determined by the degree of expression of pro-inflammatory cytokines iNOS and TNFα by Quantitative real-time PCR (qRT-PCR).
Committee of the University of Pittsburgh. Swiss Webster mice were obtained from Charles River Laboratories. NEC was induced in 7-10 day old mice as described by Leaphart et al. (21) and Afrazi et al. (54) using formula gavage (a 2:1 ratio of Similac Advance infant formula (Ross Pediatrics):Esbilac canine milk replacer) administered five times/day, along with hypoxia (5% O2, 95% N2) for 10 min in a hypoxic chamber (Billups-Rothenberg, Inc., Del Mar, Calif.) twice daily, for 4 days. This protocol results in the development of patchy necrosis involving the small intestine, which is similar to human NEC, with an increase in circulating cytokines that mimics that observed in human NEC (40). CpG was administered via the oral route at a concentration of 1 mg/kg/day, which included […] of pretreatment prior to the start of the NEC model. Disease severity was determined on histological sections of the terminal ileum by a pediatric pathologist blinded to the study condition according to a scoring system from 0 (normal) to 3 (severe), as described by Leaphart et al. (21).
(§3) The extent of LPS signaling was determined by the degree of pro-inflammatory cytokines, iNOS, and TNFα by Quantitative real-time PCR (qRT-PCR). qRT-PCR was performed using the Bio-Rad CFX96 Real-Time System (Biorad, Hercules, Calif.) using the primers listed in the table below.
Statistical analysis was performed using SPSS 13.0 software. ANOVA was used for comparisons for experiments involving more than two experimental groups. Two-tailed student's t-test was used for comparison for experiments consisting of two experimental groups. For analysis of the severity of NEC, chi-square analysis was performed.

[4] = tested on: TLR4-mediated inflammation in human ex vivo intestinal tissue; experiment: LPS-induced (TLR4-mediated) inflammation in human ex vivo control and NEC intestinal tissue, qRT-PCR; type: cell-based; conditions: CpG 1 uM, LPS 50 ug/ml 3 hours
Protocol: as §2
All human tissue was obtained and processed as discarded tissue via waiver of consent with approval from the University of Pittsburgh Institutional Review Board and in accordance with the University of Pittsburgh anatomical tissue procurement guidelines. Human tissue was obtained from infants undergoing intestinal resection for active NEC or at the time of stoma closure (healed NEC at the time of stoma closure). After initial review by the duty pathologist to ensure that adequate diagnostic information was obtained from the gross tissue specimen, the intestinal resection was divided into multiple pieces, and treated in triplicate with media alone, LPS 50 ug/ml, CpG (1 uM) alone or LPS+CpG as described by Neal et al. (55). After 3 hours of treatment, tissue was processed for qRT-PCR, and assessed for the expression of IL1β, TLR4, iNOS or IL-6.
as §3

[5] = tested on: NFκB; experiment: NFκB activation in intestinal mucosa of NFκB-GFP transgenic newborn mice with mNEC, confocal microscopy; type: in vivo, mouse; conditions: mNEC mice vs saline-treated mNEC, FIG. 4A-D
Text: FIG. 4A-D. Confocal microscopy showing extent of NFκB activation in intestinal mucosa of newborn transgenic mice that express NFκB-GFP. Nuclei are indicated by areas of blue fluorescence. NFκB is detected by a red fluorescent anti-GFP antibody, and is more punctate. Newborn mice were either (A) BF controls treated with saline; (B) mNEC mice treated with saline; or (C) mNEC mice treated with CpG-2. (D) is graphical depiction of results, showing the relative red (GFP) pixel intensity for each animal.
A murine model for NEC (“mNEC”) was produced in newborn mice by 4 days of hypoxia and formula gavage (52), which leads to the induction of iNOS, reduced enterocyte proliferation, and disruption of the ileal mucosa (“mNEC” mice) as compared to control mice that were allowed to breast feed (“BF” mice”). Specifically, mNEC was induced in 10-d-old mice (12) using formula gavage [Similac Advance infant formula (Abbott Nutrition):Esbilac canine milk replacer, 2:1] 50 μL/g body weight, five times per day for 4 d, and hypoxia (5% O2, 95% N2) administered for 10 min twice daily for 4 d using a hypoxia chamber (Billups-Rothenberg Inc.). CpG-1 was […]-3′ (SEQ ID NO:6), containing phosphorothioate linkages, known in the art as CpG ODN 1826 (Coley Pharmaceutical Group, Ottawa, Ontario, Canada (Pfizer)). CpG-2 was 5′ […] 3′ (SEQ ID NO:9). […]

[6] = control tissue (healed NEC at stoma closure), FIG. 8A

## CpG ODN 1826 [CpG-1]
[1]
  gross morphology: much more robust
  expression of TNFα in the intestines (quantitative RT-PCR): brought the levels of TNFα in mNEC animals down to approach the level in BF controls
  body weight: higher body weight
[1]; mNEC mice versus BF controls, oral CpG, FIG. 3B
  inducible nitric oxide synthase (iNOS) level (qRT-PCR): substantially reduced
[1]; oral treatment
  disruption of the small intestine mucosa (H&E histology): ameliorated
[2]; FIG. 6A
  mucosal expression of iNOS (RT-PCR): reduced almost to baseline levels
[2]; FIG. 6B
  mucosal expression of TNFα (RT-PCR): reduced almost to baseline levels
[2]; FIG. 6C
  weight at the time of euthanasia: approached controls
[3]; oral 1 mg/kg, formula-fed NEC mice, FIG. 7B(i), p<0.05 FF+CpG vs FF
  expression of iNOS in the intestinal mucosa (qRT-PCR): reduced
[3]; oral 1 mg/kg, formula-fed NEC mice, FIG. 7B(ii), p<0.05 FF+CpG vs FF
  expression of IL-6 in the intestinal mucosa (qRT-PCR): reduced
[3]; oral 1 mg/kg, score 0 (normal) to 3 (severe), FIG. 7B(iii)
  NEC severity score: reduced
[3]; oral 1 mg/kg/day incl. 4 days pretreatment, formula-fed NEC mice, FIG. 7A
  intestinal inflammation (ileum photomicrographs and gross images): attenuates intestinal inflammation
[4]; [6]
  LPS-induced increase in expression of IL1β (qRT-PCR): reduced
  LPS-induced increase in expression of TLR4 (qRT-PCR): reduced
[4]; human NEC tissue, FIG. 8B
  LPS-induced expression of IL-6 (qRT-PCR): reduced
  LPS-induced expression of iNOS (qRT-PCR): reduced

## CpG-2: CpG-ODN 5′ TCGTCGTTTTGTCGTTCCTGACGTT 3′ (SEQ ID NO:9) (listed as DNA, chemistry not given here)
[1]; mNEC animals, oral treatment, FIG. 3A
  disease severity: trended towards but did not reach statistical significance
[1]
  gross morphology: much more robust
  expression of TNFα in the intestines (quantitative RT-PCR): brought the levels of TNFα in mNEC animals down to approach the level in BF controls
  body weight: higher body weight
[1]; oral treatment
  disruption of the small intestine mucosa (H&E histology): ameliorated
[5]
  nuclear localization of NFκB (punctate red fluorescence): largely absent
